Laboratory results published in patent publication EP4644392A1, “PYRIDAZINE FUSED ARYL RING COMPOUND AND USE THEREOF” (Chia Tai Tianqing Pharmaceutical Group Co., Ltd., priority 2022, dated 2024).
Where two headings read alike, the source gives them in different places.

What was measured:
[1] = system: J774A.1 cells; experiment: Anti-pyroptosis activity assay in J774A.1 cells (CCK-8 readout, nigericin stimulation); assay type: cell-based; conditions: Mus musculus, J774.A1, nigericin 10 µM
[2] = system: IL-1β expression in THP-1 cells; experiment: In-vitro THP-1 cell (IL-1β) expression assay (LPS + nigericin, ELISA); assay type: cell-based; conditions: Homo sapiens; for inhibition at 0.001 µM: THP-1, read-out: 1 nM (% inhibition); for inhibition at 0.01 µM: THP-1, read-out: 10 nM (% inhibition); for inhibition at 0.1 µM: THP-1, read-out: 100 nM (% inhibition)
Description: THP-1 cells in good growth status were collected into a centrifuge tube, and the cell density was adjusted to 2 × 10^6 cells/mL. The cells were then seeded into a 96-well plate (50 µL/well), and meanwhile, LPS (manufacturer: Sigma; 50 µL/well) was added at a final concentration of 100 ng/mL. The plate was then incubated at 37 °C with 5% CO2 for 3 h. […] The plate was incubated at 37 °C with 5% CO2 for 1 h. Nigericin (manufacturer: Millipore; 50 µL/well) was added at a final concentration of 10 µM, and the plate was incubated at 37 °C with 5% CO2 for 1 h and then centrifuged at 1500 rpm for 3 min. The supernatant was collected and stored at -20 °C for subsequent detection of human IL-1β.
Human IL-1β detection (manufacturer: R&D): Human IL-1β Capture Antibody (coating antibody) was added to a high-binding 96-well plate at a final concentration of 4 µg/mL (100 µL/well), and the plate was incubated at 4 °C overnight. The supernatant was discarded, and the plate was washed with PBST (300 µL/well, 3 times in total). A 1% BSA-PBS blocking buffer was added (200 µL/well), and the plate was blocked at 25 °C for 2 h. The supernatant was discarded, and the plate was washed with PBST (300 µL/well, 3 times in total). A standard curve sample and the diluted samples to be tested were then added (100 µL/well), and the plate was incubated at 25 °C for 2 h. The supernatant was discarded, and the plate was washed with PBST (300 µL/well, 3 times total). Human IL-1β Detection Antibody (detection secondary antibody) was added at a final concentration of 200 ng/mL (100 µL/well), and the plate was incubated at 25 °C for 2 h. The supernatant was discarded, and the plate was washed with PBST (300 µL/well, 3 times in total). Streptavidin-HRP (detection tertiary antibody) was then added (100 µL/well), and the plate was incubated at 25 °C for 20 min. The supernatant was discarded, and the plate was washed with PBST (300 µL/well, 3 times in total). TMB was added for color development (100 µL/well), and the plate was incubated at 25 °C for 5 min. Finally, 1 M H2SO4 was added to terminate the reaction (50 µL/well). Absorbance values were measured at 450/570 nm using a PerkinElmer Envision microplate reader. Data were analyzed using a four-parameter model to calculate the IL-1β expression amount and inhibition rate. […]

[3] = In-vitro stability in liver microsomes; conditions: human liver microsomes 0.5 mg/mL, NADPH, 37 °C, 1 h
[4] = microsomes, 1 h

Row | SMILES | Human Remaining amount at 60 min (%) [3] [%] | Human Remaining amount at 60 min (%) [4] [%] | EC50 [1] [nM] | inhibition at 0.001 µM [2] [%] | inhibition at 0.01 µM [2] [%] | inhibition at 0.1 µM [2] [%]
1 | CN1CCC[C@@H](Nc2nnc(-c3ccc(C(F)(F)F)cc3O)n3c2cc2sccc23)C1 [Example 3] | – | – | 100 to 1000 | 10 to 50 | 10 to 50 | ≥ 50
2 | CN1CCC[C@@H](Nc2nnc(-c3ccc(C(F)(F)F)cc3O)c3c4c(cn23)CCC4)C1 [Example 4] | – | – | 100 to 1000 | 10 to 50 | 10 to 50 | ≥ 50
3 | CN1CCC[C@@H](Nc2nnc(-c3ccc(C(F)(F)F)cc3O)c3cc4c(n23)CCC4)C1 [Example 6] | – | – | 100 to 1000 | 10 to 50 | 10 to 50 | ≥ 50
4 | CN1CCC[C@@H](Nc2nnc(-c3ccc(Cl)cc3O)n3cccc23)C1 [Example 13] | – | – | < 100 | – | – | –
5 | C[C@]1(O)C[C@@H](Nc2nnc(-c3ccc(C(F)(F)F)cc3O)n3cccc23)C1 [Example 15] | – | – | 100 to 1000 | – | – | –
6 | Oc1cc(C(F)(F)F)ccc1-c1nnc(N[C@@H]2COC[C@H]2O)c2c3c(cn12)CCC3 [Example 16] | – | – | 100 to 1000 | – | – | –
7 | Oc1cc(C(F)(F)F)ccc1-c1nnc(N[C@@H]2COC[C@@H]2O)c2c3c(cn12)CCC3 [Example 17] | – | – | 100 to 1000 | – | – | –
8 | Oc1cc(Cl)ccc1-c1nnc(N[C@@H]2COC[C@H]2O)c2c3c(cn12)CCC3 [Example 18] | – | – | 100 to 1000 | – | – | –
9 | Oc1cc(C(F)(F)F)ccc1-c1nnc(N[C@@H]2CCCC[C@H]2O)c2c3c(cn12)CCC3 [Example 21] | – | – | < 100 | – | – | –
10 | CS(=O)(=O)N1CCC[C@@H](Nc2nnc(-c3ccc(C(F)(F)F)cc3O)n3cccc23)C1 [Example 22] | – | – | 100 to 1000 | – | – | –
11 | O=S(=O)(C1CC1)N1CCC[C@@H](Nc2nnc(-c3ccc(C(F)(F)F)cc3O)n3cccc23)C1 [Example 24] | – | – | 100 to 1000 | – | – | –

Further lines, with some results ahead:

Row | Human Remaining amount at 60 min (%) [3] [%] | Human Remaining amount at 60 min (%) [4] [%] | SMILES | EC50 [1] [nM] | inhibition at 0.001 µM [2] [%] | inhibition at 0.01 µM [2] [%] | inhibition at 0.1 µM [2] [%]
12 | 95.57 | – | CN1CCC[C@@H](Nc2nnc(-c3ccc(C(F)(F)F)cc3O)n3cccc23)C1 [Example 1] | < 100 | ≥ 50 | ≥ 50 | –
13 | – | 80.23 | CN1CCC[C@@H](Nc2nnc(-c3ccc(C(F)(F)F)cc3O)c3cc4sccc4n23)C1 [Example 2] | < 100 | 10 to 50 | 10 to 50 | ≥ 50
14 | 72.41 | – | CN1CCC[C@@H](Nc2nnc(-c3ccc(C(F)(F)F)cc3O)n3cc4c(c23)CCC4)C1 [Example 5] | < 100 | 10 to 50 | ≥ 50 | ≥ 50
15 | 90.01 | – | CN1CCC[C@@H](Nc2nnc(-c3ccc(C(F)(F)F)cc3O)n3c4c(cc23)CCC4)C1 [Example 7] | – | – | – | –
16 | 79.13 | – | OCCN1CCC[C@@H](Nc2nnc(-c3ccc(C(F)(F)F)cc3O)n3cc4c(c23)CCC4)C1 [Example 8] | – | – | – | –
17 | 98.65 | – | C#Cc1ccc(-c2nnc(N[C@@H]3CCCN(C)C3)c3cccn23)c(O)c1 [Example 9] | < 100 | ≥ 50 | ≥ 50 | ≥ 50
18 | 99.00 | – | CC#Cc1ccc(-c2nnc(N[C@@H]3CCCN(C)C3)c3cccn23)c(O)c1 [Example 10] | – | – | – | –
19 | 75.56 | – | C#Cc1ccc(-c2nnc(N[C@@H]3CCCN(C)C3)c3c4c(cn23)CCC4)c(O)c1 [Example 11] | – | – | – | –
20 | 100.53 | – | C=Cc1ccc(-c2nnc(N[C@@H]3CCCN(C)C3)c3cccn23)c(O)c1 [Example 12] | – | ≥ 50 | ≥ 50 | ≥ 50
21 | 93.13 | – | OCCN1CCC[C@@H](Nc2nnc(-c3ccc(C(F)(F)F)cc3O)c3c4c(cn23)CCC4)C1 [Example 14] | – | – | – | –
22 | 93.93 | – | NS(=O)(=O)N1CCC[C@@H](Nc2nnc(-c3ccc(C(F)(F)F)cc3O)n3cccc23)C1 [Example 23] | < 100 | – | – | –
23 | 98.06 | – | CS(=N)(=O)N1CCC[C@@H](Nc2nnc(-c3ccc(C(F)(F)F)cc3O)n3cccc23)C1 (stereo partly shown) [Example 25] | 100 to 1000 | – | – | –
